*1 amine or outer side, *2 acyl side, *3 side chain or, on linkers, in order; H or OH if unused. Where a SMILES comes first, the peptide text is derived from it. Bridges are numbered along the chain shown (N, C = ends). [ ]: non-standard residue; d: D form. 2Nal = N[C@@H](Cc1ccc2ccccc2c1)C(=O)O; AEF = NCCOc1ccc(C[C@H](N)C(=O)O)cc1; X1 = O=C(Cc1ccc(CN[*:1])cc1)[*:2]; 3Pal = N[C@@H](Cc1cccnc1)C(=O)O; αMeL = CC(C)C[C@](C)(N)C(=O)O; CH2COCH2 = O=C(C[*:1])C[*:2]; 3Amb = NCc1cccc(C(=O)O)c1; Dab = NCC[C@H](N)C(=O)O
Columns and labels:
[1] = target: T1, human IL-23R (Homo sapiens, UniProt Q5VWK5); assay: Binding assay: displacement of fluorophore (TAMRA)-labelled reference compound from human IL-23R (BRET, Nluc-IL23R fusion protein membranes); conditions: for Emax: read-out: % displacement (hIL-23R binding)
T1 construct: Nanoluc luciferase (Nluc); secretion signal encoded by the plasmid (not specified); expressed in transfected cells; crude membranes used in the assay
T1 sequence (Q5VWK5 22-629): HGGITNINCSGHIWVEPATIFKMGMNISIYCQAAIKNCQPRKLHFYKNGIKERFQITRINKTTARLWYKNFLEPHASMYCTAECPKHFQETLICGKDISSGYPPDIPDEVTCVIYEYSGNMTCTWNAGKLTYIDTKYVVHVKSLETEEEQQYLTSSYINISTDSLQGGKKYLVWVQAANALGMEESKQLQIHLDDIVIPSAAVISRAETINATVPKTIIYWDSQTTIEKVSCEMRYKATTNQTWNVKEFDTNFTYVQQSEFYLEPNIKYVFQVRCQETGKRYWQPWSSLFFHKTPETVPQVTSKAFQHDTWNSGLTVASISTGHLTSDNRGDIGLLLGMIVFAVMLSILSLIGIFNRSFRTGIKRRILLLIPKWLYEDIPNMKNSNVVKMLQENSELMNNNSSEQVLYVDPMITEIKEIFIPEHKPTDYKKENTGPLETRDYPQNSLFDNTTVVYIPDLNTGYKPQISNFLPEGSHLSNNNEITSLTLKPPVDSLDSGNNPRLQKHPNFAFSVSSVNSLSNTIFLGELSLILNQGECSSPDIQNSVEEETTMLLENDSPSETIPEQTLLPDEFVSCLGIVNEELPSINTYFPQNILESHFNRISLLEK

[2] = tested on: IL-23 mediated STAT3 signalling (DB cells); assay: Functional inhibition of IL-23 mediated STAT3 signalling (phospho-STAT3 Tyr705) in DB cells; assay type: cell-based, human; conditions: for IC50: Table 3-2, EC80 of hIL-23, read-out: hIL-23 (pSTAT3) antagonist IC50; for hIL-23 (pSTAT3) antagonist % inhibition: Table 3-2, maximal inhibitory response, EC80 of hIL-23
Source text: Upon binding of IL-23, the IL-23R forms a heterodimer signalling complex together with IL-12R β1, which through the JAK2/STAT3 pathway promotes phosphorylation of STAT3 to form phospho-STAT3.
For compounds tested in this assay, the response was normalized relative to control values to calculate the IC50 and maximal inhibitory response from a concentration response curve of the compound in presence of a fixed concentration of human IL-23.
The assay procedure was as follows. […] Following preincubation of the DB cells with inhibitor for 15 min in a cell incubator (37° C., 5% CO2), 20 μL of the prepared 3× the EC80 of hIL-23 solution was added to each well and incubated for 90 min in a cell incubator (37° C., 5% CO2). For some wells buffer only or IL-23 only corresponding to the EC80 was added to obtain readouts needed for normalization. To terminate the assay, the plate was spun at 1000 G for 5 min to pellet cells, the supernatant removed using an 8-channel manual pipette, and then added 50 μL/well Complete Lysis Buffer from the MSD STAT3 kit (Cat #K150SVD, Mesoscale) to the cell pellet. To completely lyse cells to release phospho-STAT3 for detection, the plate was shaken for 10 min at room temperature (500 rpm) sealed with aluminium foil and placed at −80° C. for a minimum of 15 min. Detection of the phospho-STAT3 level in the cell lysate from the individual wells was determined using the MSD STAT3 kit (Cat #K150SVD, Mesoscale) and read on a Meso QuickPlex SQ 120 plate reader (Mesoscale).
For data analysis raw data counts from the Meso QuickPlex SQ 120 plate reader were normalized relative to the response by the EC80 of hIL-23 alone (no compound added) and the buffer level.

Structure (SMILES): CC(C)C[C@@H]1NC(=O)[C@H](Cc2c[nH]c3ccccc23)NC(=O)[C@H](Cc2c[nH]c3ccccc23)NC(=O)[C@@H]2CSCC(=O)CSC[C@H](NC(=O)[C@H](CO)NC(=O)[C@@H](NC(=O)[C@@H](N)CC(=O)O)CCC(=O)NCCCC[C@@H](C(=O)N[C@@H](CCCNC(=N)N)C(N)=O)NC1=O)C(=O)N[C@@H](Cc1c[nH]c3ccccc13)C(=O)N[C@@H](CCC(N)=O)C(=O)N2 [Ref 4, H-DE(1c)SC(2a)WQC(2a)WWLK(1c)R-[NH2], reference compound] (HELM PEPTIDE1{D.E.S.C.W.Q.C.W.W.L.K.R.[am]}|CHEM1{[O=C(C[*:1])C[*:2]]}$PEPTIDE1,PEPTIDE1,2:R3-11:R3|PEPTIDE1,CHEM1,4:R3-1:R1|PEPTIDE1,CHEM1,7:R3-1:R2$$$V2.0)
- Emax [1]: 100%
- IC50 [2]: 850 nM
- hIL-23 (pSTAT3) antagonist % inhibition [2]: 87%

Structure (SMILES): CNC(=O)[C@H](Cc1cncnc1)NC(=O)[C@H](CCN)NC(=O)[C@@H]1CCC(=O)NCc2ccc(cc2)CC(=O)N[C@@H](CO)C(=O)N[C@H]2CCC(=O)NCC[C@H](NC(=O)[C@H](CCC(N)=O)NC(=O)[C@H](Cc3c[nH]c4ccccc34)NC2=O)C(=O)N[C@@H](Cc2ccc(OCCN)cc2)C(=O)N[C@@H](Cc2ccc3ccccc3c2)C(=O)N[C@@](C)(CC(C)C)C(=O)N1 [Compound 19, [4-Aminomethyl-phenylacetyl](1c)*SE(2c)WQ[Dab](2c)[Y(2-aminoethoxy)][2-Nal][2-Me-Leu]E(1c)[Dab][3-(3,5-Pyrimidyl)-Ala]-[NHMe]]
- Emax [1]: 103%
- IC50 [2]: 0.16 nM
- hIL-23 (pSTAT3) antagonist % inhibition [2]: 100%

Structure (SMILES): CC(C)C[C@]1(C)NC(=O)[C@H](Cc2ccc3ccccc3c2)NC(=O)[C@H](Cc2ccc(OCCN)cc2)NC(=O)[C@@H]2CSCC(=O)CSC[C@H](NC(=O)[C@H](CO)NC(=O)Cc3ccc(cc3)CNC(=O)CC[C@@H](C(=O)N[C@@H](CCN)C(=O)N[C@@H](Cc3cccnc3)C(N)=O)NC1=O)C(=O)N[C@@H](Cc1c[nH]c3ccccc13)C(=O)N[C@@H](CCC(N)=O)C(=O)N2 [Ref 120, [4-Aminomethyl-phenylacetyl](1c)*SC(2a)WQC(2a)[Y(2-aminoethoxy)][2-Nal][2-Me-Leu]E(1c)[Dab][3-(3-Pyridyl)-Ala]-[NH2], reference compound] ([X1]SCWQC[AEF][2Nal][αMeL]E[Dab][3Pal]-NH2; linker 3-6 via CH2COCH2; lactam N-10)
- Emax [1]: 94%
- hIL-23 (pSTAT3) antagonist % inhibition [2]: 101%

Structure (SMILES): CC(=O)N[C@H]1CCCCNC(=O)CC[C@@H](C(=O)N[C@@H](CCCNC(=N)N)C(N)=O)NC(=O)[C@H](CC(C)C)NC(=O)[C@H](Cc2ccc3ccccc3c2)NC(=O)[C@H](Cc2c[nH]c3ccccc23)NC(=O)[C@@H]2CSCC(=O)CSC[C@H](NC(=O)[C@H](CO)NC1=O)C(=O)N[C@@H](Cc1c[nH]c3ccccc13)C(=O)N[C@@H](CCC(N)=O)C(=O)N2 [Ref 18, [Ac]-K(1c)SC(2a)WQC(2a)W[2-Nal]LE(1c)R-[NH2], reference compound] (HELM PEPTIDE1{[ac].K.S.C.W.Q.C.W.[O=C([C@H](Cc1ccc2ccccc2c1)N[*:1])[*:2]].L.E.R.[am]}|CHEM1{[O=C(C[*:1])C[*:2]]}$PEPTIDE1,PEPTIDE1,2:R3-11:R3|PEPTIDE1,CHEM1,4:R3-1:R1|PEPTIDE1,CHEM1,7:R3-1:R2$$$V2.0)
- Emax [1]: 103%
- IC50 [2]: 18 nM
- hIL-23 (pSTAT3) antagonist % inhibition [2]: 97%

Structure (SMILES): CNC(=O)[C@H](Cc1cccnc1)NC(=O)[C@H](CCN)NC(=O)[C@@H]1CCC(=O)NCc2ccc(cc2)CC(=O)N[C@@H](CO)C(=O)N[C@H]2CCC(=O)NCC[C@H](NC(=O)[C@H](C)NC(=O)[C@H](Cc3c[nH]c4ccccc34)NC2=O)C(=O)N[C@@H](Cc2ccc(OCCN)cc2)C(=O)N[C@@H](Cc2ccc3ccccc3c2)C(=O)N[C@@](C)(CC(C)C)C(=O)N1 [Compound 22, [4-Aminomethyl-phenylacetyl](1c)*SE(2c)WA[Dab](2c)[Y(2-aminoethoxy)][2-Nal][2-Me-Leu]E(1c)[Dab][3-(3-Pyridyl)-Ala]-[NHMe]] ([X1]SEWA[Dab][AEF][2Nal][αMeL]E[Dab][3Pal]-NHMe; lactam 3-6, N-10)
- IC50 [1]: 0.035 nM
- hIL-23 (pSTAT3) antagonist % inhibition [2]: 101%

Structure (SMILES): CC(=O)N[C@H]1CCCCNC(=O)CC[C@@H](C(=O)N[C@@H](CCN)C(=O)N[C@@H](Cc2cccnc2)C(N)=O)NC(=O)[C@](C)(CC(C)C)NC(=O)[C@H](Cc2ccc3ccccc3c2)NC(=O)[C@H](Cc2ccc(OCCN)cc2)NC(=O)[C@@H]2CSCC(=O)CSC[C@H](NC(=O)[C@H]([C@@H](C)O)NC1=O)C(=O)N[C@@H](Cc1c[nH]c3ccccc13)C(=O)N[C@@H](CCC(N)=O)C(=O)N2 [Ref 155, [Ac]-K(1c)TC(2a)WQC(2a)[Y(2-aminoethoxy)][2-Nal][2-Me-Leu]E(1c)[Dab][3-(3-Pyridyl)-Ala]-[NH2], reference compound] (Ac-KTCWQC[AEF][2Nal][αMeL]E[Dab][3Pal]-NH2; lactam 1-10; linker 3-6 via CH2COCH2)
- Emax [1]: 97%
- hIL-23 (pSTAT3) antagonist % inhibition [2]: 100%

Structure (SMILES): CC(C)C[C@]1(C)NC(=O)[C@H](Cc2ccc3ccccc3c2)NC(=O)[C@H](Cc2ccc(OCCN)cc2)NC(=O)[C@@H]2CSCC(=O)CSC[C@H](NC(=O)[C@H](CO)NC(=O)Cc3ccc(cc3)CNC(=O)CC[C@@H](C(=O)N[C@@H](CCCNC(=N)N)C(N)=O)NC1=O)C(=O)N[C@@H](Cc1c[nH]c3ccccc13)C(=O)N[C@@H](CCC(N)=O)C(=O)N2 [Ref 52, [4-Aminomethyl-phenylacetyl](1c)*SC(2a)WQC(2a)[Y(2-aminoethoxy)][2-Nal][2-Me-Leu]E(1c)R-[NH2], reference compound] ([X1]SCWQC[AEF][2Nal][αMeL]ER-NH2; linker 3-6 via CH2COCH2; lactam N-10)
- Emax [1]: 100%
- IC50 [2]: 7.8 nM
- hIL-23 (pSTAT3) antagonist % inhibition [2]: 103%

Structure (SMILES): CC(C)C[C@]1(C)NC(=O)[C@H](Cc2c[nH]c3ccccc23)NC(=O)[C@H](Cc2c[nH]c3ccccc23)NC(=O)[C@@H]2CSCC(=O)CSC[C@H](NC(=O)[C@H]([C@@H](C)O)NC(=O)[C@@H](NC(=O)CN)CSCC(=O)CSC[C@@H](C(=O)N[C@@H](CO)C(N)=O)NC1=O)C(=O)N[C@@H](Cc1c[nH]c3ccccc13)C(=O)N[C@@H](CCC(=O)O)C(=O)N2 (single isomer, unassigned) [I5 (isomer 3), H-GC(1a)TC(2a)WEC(2a)WW[2-Me-Leu]C(1a)S-[NH2], reference compound]
- Emax [1]: 102%
- hIL-23 (pSTAT3) antagonist % inhibition [2]: 91%

Structure (SMILES): CC(C)C[C@]1(C)NC(=O)[C@H](Cc2ccc3ccccc3c2)NC(=O)[C@H](Cc2ccc(OCCN)cc2)NC(=O)[C@@H]2CSCC(=O)CSC[C@H](NC(=O)[C@H](CO)NC(=O)Cc3ccc(cc3)CNC(=O)CC[C@@H](C(=O)N[C@@H](CCN)C(N)=O)NC1=O)C(=O)N[C@@H](Cc1c[nH]c3ccccc13)C(=O)N[C@@H](CCC(N)=O)C(=O)N2 [Ref 82, [4-Aminomethyl-phenylacetyl](1c)*SC(2a)WQC(2a)[Y(2-aminoethoxy)][2-Nal][2-Me-Leu]E(1c)[Dab]-[NH2], reference compound] ([X1]SCWQC[AEF][2Nal][αMeL]E[Dab]-NH2; linker 3-6 via CH2COCH2; lactam N-10)
- Emax [1]: 103%
- IC50 [2]: 11 nM
- hIL-23 (pSTAT3) antagonist % inhibition [2]: 97%

Structure (SMILES): CC(C)C[C@@H]1NC(=O)[C@H](Cc2ccc3ccccc3c2)NC(=O)[C@H](Cc2c[nH]c3ccccc23)NC(=O)[C@@H]2CSCC(=O)CSC[C@H](NC(=O)[C@H](CO)NC(=O)c3cccc(c3)CNC(=O)CC[C@@H](C(=O)N[C@@H](CCCNC(=N)N)C(N)=O)NC1=O)C(=O)N[C@@H](Cc1c[nH]c3ccccc13)C(=O)N[C@@H](CCC(N)=O)C(=O)N2 [Ref 37, [(3-Aminomethyl)benzoyl](1c)*SC(2a)WQC(2a)W[2-Nal]LE(1c)R-[NH2], reference compound] ([3Amb]SCWQCW[2Nal]LER-NH2; linker 3-6 via CH2COCH2; lactam N-10)
- Emax [1]: 103%
- IC50 [2]: 45 nM
- hIL-23 (pSTAT3) antagonist % inhibition [2]: 89%

Source: patent US20260327264A1, “PEPTIDE INHIBITORS OF INTERLEUKIN-23 RECEPTOR” (Zealand Pharma A/S, priority 2023, published 2026)
